In one experiment the test system is GABAAR. More on the design: method as in Park-Chung et al., 1999. The note with it: ref Park-Chung et al., 1999; cited from earlier work.
In another experiment the test system is glycine receptor (GlyR). In words: Glycine-induced chloride current (IGly), whole-cell patch-clamp in isolated pyramidal neurons of the rat hippocampus. Format: cell-based. The note with it: 100 μM glycine; for τdes/τdes control of IGly: 0.1 μM of steroid; for τdes/τdes control of IGly / Ipeak/Ipeak control of IGly: mean ± SEM, normalized; for τdes IGly (effect on time constant of desensitization): 10 μM compound; for Ipeak/Ipeak control of IGly: 10 μM of steroid; for Ipeak max (maximum inhibition attainable) of IGly / τdes max (maximum inhibition attainable) of IGly: Hill fit; for Ipeak max (maximum inhibition attainable) of IGly / Ipeak Hill coefficient of IGly: peak amplitude; for τdes max (maximum inhibition attainable) of IGly / τdes Hill coefficient of IGly: time constant of desensitization. As for the experimental part: (§1) All experiments were conducted per the requirements of the Ministry of Public Health of the Russian Federation and were consistent with the EU directive for Use of Experimental Animals of the European Community. […] The cells were isolated from transverse hippocampal slices as described in detail elsewhere ([Vorobjev, 1991]). Briefly, the slices (200–500 μm) of Wistar rats (11–14 days of age) hippocampus or cerebellum were incubated at room temperature for at least 2 h in a solution containing the following components (in mM): 124 NaCl, 3 KCl, 2 CaCl2, 2 MgSO4, 25 NaHCO3, 1.3 NaH2PO4, 10 D-glucose, pH 7.4. The saline was continuously stirred and bubbled with carbogen (95% 0_2 + 5% CO2). Single pyramidal neurons from the hippocampal CA3 area or Purkinje cells from sagittal slices of the cerebellum were isolated by a vibrating fused glass pipette with a spherical tip.
(§2) Isolated neurons were patch clamped and then lifted into the outflow of the control bath solution. […] The substances were applied through glass capillary, 0.1 mm in diameter, which could be rapidly displaced laterally ([Vorobjev et al., 1996]). A fast perfusion technique allows a complete exchange of external solution surrounding a neuron within 20 ms. […] Transmembrane currents were recorded using a conventional patch-clamp technique in the whole-cell configuration. […] The solution in the recording pipette contained the following (in mM): 40 CsF, 100 CsCl, 0.5 CaCl2, 5 EGTA, 3 MgCl2, 4 NaATP, 5 HEPES, pH 7.3. The composition of the extracellular solution was as follows (in mM): 140 NaCl, 3 KCl, 3 CaCl2, 3 MgCl2, 10 D-glucose, 10 HEPES hemisodium, and pH 7.4. Recording of the currents was performed using EPC7 patch-clamp amplifier (HEKA Electronik, Germany). The holding potential was maintained at −70 mV. Transmembrane currents were filtered at 3 kHz, stored and analyzed with IBM-PC computer, using homemade software.
(§3) Statistical analysis was performed with the help of Prism Graphpad software. All comparisons were made with ANOVA-test using Dunnett’s multiple comparison test and Student’s unpaired t-test at a significance level of p = 0.05. N = 5–8 cells from 3 to 4 animals for every concentration. […] The meanings of asterisks (probability levels) in figures is the following: ^∗P < 0.05, ^∗∗P < 0.01. The IC50 values for steroids inhibition of the IGly and IGABA were determined using the equation: Y = 1 – [max/(1 + (IC50/C)^n)], where max is the maximum inhibition attainable, C is the concentration of steroid, IC50 is the half-maximal inhibitory concentration and n is the slope factor (Hill coefficient).
(§4) First, the ability of steroids to affect the holding current at voltage-clamp regime was tested. […] The experiments with IGly were conducted on rat hippocampal neurons, and experiments with IGABA were conducted on rat cerebellar Purkinje cells.
For orientation: Patch clamp records ionic current or voltage across a cell membrane.

For a further experiment, the target named is T1, GABAA receptors (Rattus norvegicus, UniProt P18508+P62813+P63138).
T1 construct: Single pyramidal neurons from the hippocampal CA3 area or Purkinje cells from sagittal slices of the cerebellum were isolated; endogenous in cells; host or cells: acutely isolated Purkinje cells from cerebellar slices of Wistar rats, 11-14 days old
T1 sequence (P62813 28-455): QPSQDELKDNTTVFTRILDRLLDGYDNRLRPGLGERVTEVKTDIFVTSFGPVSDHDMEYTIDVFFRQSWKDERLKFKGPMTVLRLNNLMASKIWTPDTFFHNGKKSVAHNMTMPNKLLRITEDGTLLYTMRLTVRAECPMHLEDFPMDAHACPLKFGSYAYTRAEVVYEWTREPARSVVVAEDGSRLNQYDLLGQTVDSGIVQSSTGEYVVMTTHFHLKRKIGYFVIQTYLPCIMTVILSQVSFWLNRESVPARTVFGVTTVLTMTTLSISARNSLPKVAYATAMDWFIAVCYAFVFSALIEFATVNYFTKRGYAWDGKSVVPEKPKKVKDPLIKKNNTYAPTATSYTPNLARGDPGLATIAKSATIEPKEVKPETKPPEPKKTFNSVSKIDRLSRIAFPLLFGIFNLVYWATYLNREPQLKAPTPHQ
T1 sequence (P63138 25-474 limits assumed): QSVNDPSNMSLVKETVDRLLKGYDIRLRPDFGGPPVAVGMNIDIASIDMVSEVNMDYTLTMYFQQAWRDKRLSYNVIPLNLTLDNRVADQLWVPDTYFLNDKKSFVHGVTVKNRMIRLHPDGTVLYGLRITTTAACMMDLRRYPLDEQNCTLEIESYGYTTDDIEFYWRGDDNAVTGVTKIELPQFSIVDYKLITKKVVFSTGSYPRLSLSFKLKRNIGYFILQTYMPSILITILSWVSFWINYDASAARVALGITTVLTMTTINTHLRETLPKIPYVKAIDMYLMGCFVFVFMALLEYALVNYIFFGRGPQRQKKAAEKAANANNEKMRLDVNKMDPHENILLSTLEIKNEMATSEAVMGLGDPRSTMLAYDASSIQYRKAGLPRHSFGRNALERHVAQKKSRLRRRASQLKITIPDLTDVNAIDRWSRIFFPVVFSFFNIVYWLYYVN
T1 sequence (P18508 39-466): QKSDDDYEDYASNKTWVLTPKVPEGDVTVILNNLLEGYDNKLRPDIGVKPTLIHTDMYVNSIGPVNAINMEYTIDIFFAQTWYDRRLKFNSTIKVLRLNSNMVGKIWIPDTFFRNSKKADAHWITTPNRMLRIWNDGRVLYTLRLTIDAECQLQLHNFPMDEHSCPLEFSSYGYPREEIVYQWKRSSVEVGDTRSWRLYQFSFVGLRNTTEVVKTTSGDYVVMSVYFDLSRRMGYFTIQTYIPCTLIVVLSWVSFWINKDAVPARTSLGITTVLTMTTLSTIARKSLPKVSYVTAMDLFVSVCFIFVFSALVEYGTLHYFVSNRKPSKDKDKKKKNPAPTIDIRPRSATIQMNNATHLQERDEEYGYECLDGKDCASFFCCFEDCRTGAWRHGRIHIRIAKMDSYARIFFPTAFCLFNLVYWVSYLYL
It is filed as cell-based. As for the experimental part: as §1, §2, §3, §4

The test system of another experiment is recombinant GlyRs. Set-up: method as in Maksay et al. (2001). The note with it: expressed in frog oocytes; ref Maksay et al. (2001); read-out: IC50 for inhibition of recombinant GlyRs; cited from earlier work.
[1] abbreviates: read-out: Ipeak IC50 of IGly, inhibition of peak amplitude.
The mark [2] stands for this setting: read-out: τdes IC50 of IGly, acceleration of desensitization (decrease in τdes).

By IC50 is commonly meant the point on the concentration scale where inhibition reaches its midpoint.

Each structure is given as a SMILES string. “Also recorded” adds a separate entry of the source. Counter-ions that a name gives are not always drawn. Like-named read-outs stand apart in the source and are kept apart here.

Consider `CC(=O)[C@H]1CC[C@H]2[C@@H]3CC[C@H]4C[C@H](O)CC[C@]4(C)[C@H]3CC[C@]12C` [3α-hydroxy-5α-pregnane-20-one], for which the “Efficacy of potentiation of IGABA” value with GABAAR is given as 1373%.

For the molecule `CC(O)C1CCC2C3CCC4CC(O)CCC4(C)C3CCC12C` (stereo not drawn) [20α-hydroxy analog], the “Efficacy of potentiation of IGABA” value in the experiment on GABAAR is 166%.

On to `C[C@]12CC[C@H](O)CC1=CC[C@@H]1[C@@H]2CC[C@]2(C)C(=O)CC[C@@H]12` [Compound 8, 3β-Hydroxy-androst-5-en-17-one], for which, in the experiment with glycine receptor (GlyR), the “τdes/τdes control of IGly” value is recorded as 0.67 ± 0.05, the “τdes IGly (effect on time constant of desensitization)” value is −79%, the “Ipeak/Ipeak control of IGly” value turned out to be 0.70 ± 0.01 and the “Ipeak max (maximum inhibition attainable) of IGly” value is reported as 0.73 ± 0.08. Moreover, in the experiment with glycine receptor (GlyR), the “τdes max (maximum inhibition attainable) of IGly” value was 0.88 ± 0.09, the “Ipeak Hill coefficient of IGly” value stood at 0.92 ± 0.14 and the “τdes Hill coefficient of IGly” value was determined as 0.57 ± 0.14. Also, in the experiment on glycine receptor (GlyR) (setting [1]), the IC50 came to 21.3 ± 2.2 µM. In addition, in the experiment on glycine receptor (GlyR) (setting [2]), the IC50 is 0.24 ± 0.09 µM. Also, the “τdes IGABA (effect on time constant of desensitization)” value at GABAA receptors (10 μM compound, 5 μM GABA) is given as −12%. Besides, the “τdes/τdes control of IGABA” value on GABAA receptors (10 μM of steroid, 5 μM GABA) was 0.88 ± 0.05. On GABAA receptors (50 μM compound, 5 μM GABA), the “Acceleration of decay (desensitization) of IGABA” value is 23–45% and the “Decrease in the peak amplitude of IGABA” value is 14–25%. The “Ipeak/Ipeak control of IGABA” value on GABAA receptors (50 μM of steroid, 5 μM GABA) was found to be 0.75 ± 0.04.

Consider `C[C@]12CCC(=O)C[C@H]1CC[C@@H]1[C@@H]2CC[C@]2(C)C(=O)CC[C@@H]12` [Compound 9, 5β-Androstane-3,17-dione], for which, in the experiment on glycine receptor (GlyR), the “τdes/τdes control of IGly” value was 0.72 ± 0.07, the “τdes IGly (effect on time constant of desensitization)” value is on record as −68%, the “Ipeak/Ipeak control of IGly” value is 0.77 ± 0.03 and the “Ipeak max (maximum inhibition attainable) of IGly” value came out at 0.68 ± 0.09. For the same molecule, in the experiment on glycine receptor (GlyR), the “τdes max (maximum inhibition attainable) of IGly” value turned out to be 0.79 ± 0.11, the “Ipeak Hill coefficient of IGly” value worked out at 1.0 ± 0.19 and the “τdes Hill coefficient of IGly” value is on record as 0.56 ± 0.14. Besides, in the experiment with glycine receptor (GlyR) (setting [1]), the IC50 came out at 22 ± 2.8 µM. Further, in the experiment with glycine receptor (GlyR) (setting [2]), the IC50 was 0.4 ± 0.12 µM. Further, at GABAA receptors, the “Ipeak/Ipeak control of IGABA” value worked out at 0.99 ± 0.01, the “Modulation of IGABA (peak amplitude or rate of decay/desensitization)” value was “did not modulate; also recorded: remained inactive; also recorded: did not change”, the “τdes IGABA (effect in words)” value is given as “^cNo effect” and the “τdes/τdes control of IGABA” value was 0.97 ± 0.03.

For `C[C@]12CC[C@H](OS(=O)(=O)O)CC1=CCC1C2CC[C@]2(C)C(=O)CCC12` (stereo partly drawn) [DHEA sulfate], in the experiment with recombinant GlyRs, the IC50 is 2.5 to 6.3 µM.

Source of the values: article PMC7098970, “Neurosteroids as Selective Inhibitors of Glycine Receptor Activity: Structure-Activity Relationship Study on Endogenous Androstanes and Androstenes” (Frontiers in Molecular Neuroscience, 2020).
